13 compounds from PubChem BioAssay (NCI) can be followed below.

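Briefly, cells in 96-well plates were exposed to five compound concentrations for 48 h, and endpoints were estimated by linear interpolation. TGI denotes the concentration required for complete inhibition of growth.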 A value given as a limit tells only on which side of the number the result lay.

Some test systems named below: MDA-N; U251 CNS; NCI-H226 lung; UACC-62 melanoma; OVCAR-8 ovarian; 786-0 renal; CAKI-1 renal; SK-MEL-28 melanoma; HCT-116 colon; TK-10 renal; NCI-H460 lung.
What all share (assay): NCI anticancer screen, dose series, 48 h

For the compound `O=C1O[C@H](c2ccc3c(c2)OCO3)[C@H]2CO[C@@H](c3ccc4c(c3)OCO4)[C@@H]12`, the TGI in the assay on MDA-N, in the assay on U251 CNS, in the assay with NCI-H226 lung, in the assay on UACC-62 melanoma, in the assay on OVCAR-8 ovarian and with 786-0 renal was greater than 100 µM in each case. Further, the TGI in the assay with CAKI-1 renal, with SK-MEL-28 melanoma, in the assay on HCT-116 colon, in the assay on TK-10 renal and in the assay with NCI-H460 lung was greater than 100 µM in each case.
Consider `CCOC(=O)NC(Nc1ccc([N+](=O)[O-])cc1)(C(F)(F)F)C(F)(F)F`, for which the TGI in the assay on MDA-N is 54.7 µM; with U251 CNS it was greater than 100 µM; with NCI-H226 lung it was greater than 100 µM; in the assay with UACC-62 melanoma, greater than 100 µM; in the assay on OVCAR-8 ovarian, greater than 100 µM; in the assay on 786-0 renal, greater than 100 µM. Further, the TGI with CAKI-1 renal, with SK-MEL-28 melanoma, in the assay on HCT-116 colon, in the assay on TK-10 renal and in the assay on NCI-H460 lung was greater than 100 µM throughout.
Regarding `COc1cccc(/C=N/n2c(C)n[nH]c2=O)c1`, the TGI in the assay on MDA-N, with U251 CNS, in the assay with NCI-H226 lung, in the assay with UACC-62 melanoma, in the assay on OVCAR-8 ovarian and in the assay with 786-0 renal was greater than 100 µM throughout. The TGI in the assay on CAKI-1 renal, in the assay on SK-MEL-28 melanoma, in the assay with HCT-116 colon and in the assay on NCI-H460 lung was greater than 100 µM in each case.
`Nc1nc(Cl)cc(NCC2(CO)CCCC2)n1`: the TGI with MDA-N, with U251 CNS, in the assay on NCI-H226 lung, in the assay with UACC-62 melanoma, with OVCAR-8 ovarian and in the assay with 786-0 renal was greater than 100 µM in each case. The TGI in the assay on CAKI-1 renal, with SK-MEL-28 melanoma, in the assay with HCT-116 colon, in the assay on TK-10 renal and with NCI-H460 lung was greater than 100 µM throughout.
Regarding `CC(C)CC(O)P(=O)(O)O` (stereo not given), the TGI in the assay with MDA-N, in the assay on U251 CNS, in the assay with NCI-H226 lung, in the assay with UACC-62 melanoma, with 786-0 renal and in the assay on CAKI-1 renal was greater than 100 µM throughout. For the same compound, the TGI in the assay on SK-MEL-28 melanoma, with HCT-116 colon, with TK-10 renal and with NCI-H460 lung was greater than 100 µM in each case.
For the compound `Cn1c(COC(=O)Nc2ccccc2)c(COC(=O)Nc2ccccc2)c2ccc3cc(Cl)c(Cl)cc3c21`, the TGI worked out at 18.3 µM in the assay on MDA-N; 5.01 µM in the assay with U251 CNS; 54.7 µM in the assay on NCI-H226 lung; 40.7 µM with UACC-62 melanoma; 7.5 µM in the assay on OVCAR-8 ovarian; 12.6 µM in the assay with 786-0 renal. The TGI in the assay on CAKI-1 renal came out at 3.09 µM; in the assay on SK-MEL-28 melanoma, 41.4 µM; in the assay on HCT-116 colon it was 38.5 µM; in the assay with TK-10 renal it was 22.7 µM; with NCI-H460 lung, 22.9 µM.
For `CC1=NNC(=O)C1C(CC(=O)c1c[nH]c2ccccc12)C(=O)O` (stereo not given), the TGI in the assay with MDA-N, in the assay with U251 CNS, in the assay on NCI-H226 lung, in the assay with UACC-62 melanoma, in the assay on OVCAR-8 ovarian and in the assay with 786-0 renal was greater than 100 µM in each case. Also, the TGI with CAKI-1 renal, in the assay on SK-MEL-28 melanoma, in the assay on HCT-116 colon, with TK-10 renal and in the assay on NCI-H460 lung was greater than 100 µM in each case.
As for `CCC/C(Cl)=N\OC(=O)Nc1ccc(OC(F)(F)F)cc1`, the TGI was 28.2 µM in the assay with MDA-N; greater than 58.1 µM in the assay on U251 CNS; 34.5 µM in the assay on NCI-H226 lung; 48.7 µM with UACC-62 melanoma; 36.3 µM with OVCAR-8 ovarian; 26.1 µM in the assay on 786-0 renal. The TGI was 3.05 µM with CAKI-1 renal; 41.9 µM in the assay on SK-MEL-28 melanoma; greater than 51.6 µM in the assay on HCT-116 colon; 12.4 µM with TK-10 renal; 40.1 µM in the assay with NCI-H460 lung.
`C=C(Cl)C(C)(Cl)CCC(Br)C(C)(C)Cl` (stereo not given): the TGI was 33 µM with MDA-N; 29.8 µM in the assay with U251 CNS; greater than 100 µM with NCI-H226 lung; 30.9 µM in the assay on UACC-62 melanoma; 31.3 µM with 786-0 renal; 50.1 µM in the assay on CAKI-1 renal. The TGI was 48.1 µM in the assay on SK-MEL-28 melanoma, 29.5 µM with HCT-116 colon, greater than 100 µM in the assay with TK-10 renal and 71.9 µM in the assay with NCI-H460 lung.
Consider `CCNC(=O)Nc1cccc(NC(=O)NCC)n1`, for which the TGI in the assay on MDA-N, with U251 CNS, with NCI-H226 lung, with UACC-62 melanoma, in the assay with OVCAR-8 ovarian and in the assay with 786-0 renal was greater than 100 µM each time. Also, the TGI with CAKI-1 renal, in the assay on SK-MEL-28 melanoma, in the assay on HCT-116 colon, in the assay on TK-10 renal and in the assay with NCI-H460 lung was greater than 100 µM in each case.
For the compound `On1c(-c2ccccc2)nc2ccccc2c1=S`, the TGI in the assay on MDA-N, in the assay on U251 CNS, in the assay on NCI-H226 lung, in the assay with UACC-62 melanoma, in the assay with OVCAR-8 ovarian and in the assay with 786-0 renal was greater than 100 µM throughout. The TGI was greater than 100 µM in the assay with CAKI-1 renal; greater than 100 µM in the assay with SK-MEL-28 melanoma; greater than 100 µM with HCT-116 colon; greater than 100 µM with TK-10 renal; 61.8 µM with NCI-H460 lung.
With `COc1ccc2c(c1)CCN1CCc3ccccc3CC21` (stereo not given), the TGI in the assay with MDA-N was greater than 100 µM; in the assay on U251 CNS, greater than 100 µM; in the assay with NCI-H226 lung, 83.5 µM; in the assay with UACC-62 melanoma, greater than 100 µM; in the assay on OVCAR-8 ovarian, greater than 100 µM; in the assay on 786-0 renal it was greater than 100 µM. In addition, the TGI is greater than 100 µM in the assay with CAKI-1 renal; 98.5 µM in the assay with SK-MEL-28 melanoma; greater than 100 µM in the assay with HCT-116 colon; greater than 100 µM in the assay on TK-10 renal; greater than 100 µM with NCI-H460 lung.
`C=CCOc1ccc(C2(O)c3ccccc3C3=NCCCN32)cc1` (stereo not given): the TGI in the assay with MDA-N was greater than 63.2 µM; in the assay on U251 CNS, greater than 100 µM; in the assay with NCI-H226 lung, greater than 100 µM; with UACC-62 melanoma, greater than 57 µM; in the assay on OVCAR-8 ovarian, greater than 100 µM; in the assay with 786-0 renal, greater than 78.6 µM. Also, the TGI was greater than 100 µM in the assay with CAKI-1 renal; 59.3 µM with SK-MEL-28 melanoma; greater than 100 µM in the assay on HCT-116 colon; greater than 100 µM in the assay on TK-10 renal; greater than 100 µM in the assay on NCI-H460 lung.
